The values below are quoted from earlier work in patent US20210220455A1, “COMPOSITIONS AND METHODS FOR PERSONALIZED NEOPLASIA VACCINES” (The Broad Institute, Inc., priority 2013, published 2021).

Data set [1] deals with ovarian carcinoma patients. The following applies: cited from earlier work.
Data set [2] concerns healthy human volunteers. The conditions noted are these: cited from earlier work.

Consider “Polyinosinic-Polycytidylic Acid-poly-L-lysine Carboxymethylcellulose [poly-ICLC]”, for which the “generation of NY-ESO-1-specific CD4+ and CD8+ T-cell and antibody responses” value in data set [1] (1.4 mg poly-ICLC and Montanide added to OLP vs OLP alone or OLP and Montanide) is recorded as “markedly enhanced”. In data set [1] (poly-ICLC with NY-ESO-1 peptide vaccine and Montanide), the “patients showing induction of CD4+ and CD8+ T cell and antibody responses to the peptide” value is given as over 90%. The “differentially expressed genes versus placebo” value in data set [2] (8 volunteers, one single s.c. administration vs 4 placebo subjects) was “up to 212 genes”. In data set [2] (human, in vivo), the “safety in human volunteer study” value is reported as “safe”.
